# In patent US11851459B2, “Methods and uses of modulators of anaphase promoting complex (APC) activity for treating cancer” (University of Saskatchewan, priority 2018, dated 2023):
# Legend:
# wild type (WT) cells = assay: Growth of WT yeast expressing peptides, spot dilution; format: cell-based; details: peptides expressed in WT yeast
# Excerpt: A. Yeast 2-hybrid (Y2H) cells expressing the APC subunit bait and the galactose inducible Apc10 peptide prey grown on glucose or galactose. Cells co-expressing the Apc5 or Apc10-bait and Apc10 aptamer-prey vectors were spotted onto the appropriate media, in the presence or absence of galactose (the aptamers are Gal inducible), to confirm Y2H interactions. Growth on trp^− his^− media ensures both plasmids are maintained. A Y2H interaction will drive expression of the ADE2 gene, allowing growth on ade^− media. B. Aptamers that bind Apc10 can suppress APC mutant phenotypes. Spot dilutions of apc10Δ cells expressing an empty vector control or the one of 6 Apc10 aptamers tested. Log phase cells were 10-fold serially diluted and spotted onto plates containing either 2% glucose or 2% galactose. The plates were then incubated at 30° C. (permissive temperature) and 34° C. (restrictive stress). C. Peptides identified as binding to the yeast Apc10 APC subunit using the Y2H screen increase growth of wildtype (WT) cells. A series of APC binding peptides were transformed into WT yeast cells, spot diluted, and grown at 30° C. on media supplemented with the normal carbon source (2% glucose). […]
# The six peptide expressing vectors were transformed into apc10Δ cells and assessed for temperature sensitive growth. […]
# APC (substrate Cyclin B) = assay: Cyclin B protein levels in MCF7 cells; format: cell-based, human; details: MCF7, 48 hrs; 1 mM metformin or transient transfection of peptide plasmid
# Description: MCF7 breast cancer cells were treated with 1 mM metformin or transiently transfected with an APC activating peptide (C43-4) for 48 hrs, then harvested for assessment of Cyclin B protein levels. Cyclin B is an APC target.
# A mouse model for growing patient derived breast tumor cells obtained from a patient with triple negative breast cancer was developed. This patient had developed resistance to Doxorubicin. Tumors growing in these mice grow rapidly. Mice growing the patient derived xenografted (PDX) tumor were injected with various amounts of M2I-1. […] Since the APC was activated in the canines tested in this study following treatment with metformin, it was asked if metformin can directly activate the APC. Reduced APC substrate Cyclin B levels following metformin treatment in human MCF7 breast cancer cells was observed, similar to that observed when MDF7 cells express the C43-4 plasmid (see below for more on this plasmid) (FIG. 21).
sequence,measurement,setting,value
NGSSHNDLRVRRLTLISRLC [C43-4],growth / viability of WT cells,wild type (WT) cells,increases the viability of WT cells
same,APC substrate Cyclin B protein levels,APC (substrate Cyclin B),reduces protein levels
